What was measured:
[1] = Cytotoxicity against human HL-60(TB) cells assessed as cell growth at 10^-5 M after 48 hrs by sulforhodamine B assay; format: functional; details: HL-60, 48 h, read-out: Activity
[2] = system: K562; experiment: Cytotoxicity against human K562 cells assessed as cell growth at 10^-5 M after 48 hrs by sulforhodamine B assay; format: functional; details: K562, 48 h, read-out: Activity
[3] = system: SR; experiment: Cytotoxicity against human SR cells assessed as cell growth at 10^-5 M after 48 hrs by sulforhodamine B assay; format: functional; details: read-out: Activity
[4] = system: NCI-H522; experiment: Cytotoxicity against human NCI-H522 cells assessed as cell growth at 10^-5 M after 48 hrs by sulforhodamine B assay; format: functional; details: NCI-H522, 48 h, read-out: Activity
[5] = system: HT-29; experiment: Cytotoxicity against human HT-29 cells assessed as cell growth at 10^-5 M after 48 hrs by sulforhodamine B assay; format: functional; details: HT-29, 48 h, read-out: Activity
[6] = system: KM12; experiment: Cytotoxicity against human KM12 cells assessed as cell growth at 10^-5 M after 48 hrs by sulforhodamine B assay; format: functional; details: KM12, 48 h, read-out: Activity
[7] = system: SK-MEL-28; experiment: Cytotoxicity against human SK-MEL-28 cells assessed as cell growth at 10^-5 M after 48 hrs by sulforhodamine B assay; format: functional; details: SK-MEL-28, 48 h, read-out: Activity
[8] = system: SK-MEL-5; experiment: Cytotoxicity against human SK-MEL-5 cells assessed as cell growth at 10^-5 M after 48 hrs by sulforhodamine B assay; format: functional; details: SK-MEL-5, 48 h, read-out: Activity
[9] = Cytotoxicity against human UACC257 cells assessed as cell growth at 10^-5 M after 48 hrs by sulforhodamine B assay; format: functional; details: UACC-257, 48 h, read-out: Activity
[10] = Cytotoxicity against human OVCAR4 cells assessed as cell growth at 10^-5 M after 48 hrs by sulforhodamine B assay; format: functional; details: OVCAR-4, 48 h, read-out: Activity
[11] = Cytotoxicity against human NCI-ADR-RES cells assessed as cell growth at 10^-5 M after 48 hrs by sulforhodamine B assay; format: functional; details: read-out: Activity
[12] = Cytotoxicity against human SKOV3 cells assessed as cell growth at 10^-5 M after 48 hrs by sulforhodamine B assay; format: functional; details: SK-OV-3, 48 h, read-out: Activity
[13] = system: ACHN; experiment: Cytotoxicity against human ACHN cells assessed as cell growth at 10^-5 M after 48 hrs by sulforhodamine B assay; format: functional; details: read-out: Activity
[14] = Cytotoxicity against human Caki1 cells assessed as cell growth at 10^-5 M after 48 hrs by sulforhodamine B assay; format: functional; details: CAKI-1, 48 h, read-out: Activity
[15] = Cytotoxicity against human RXF393 cells assessed as cell growth at 10^-5 M after 48 hrs by sulforhodamine B assay; format: functional; details: RXF 393, 48 h, read-out: Activity
[16] = Cytotoxicity against human TK10 cells assessed as cell growth at 10^-5 M after 48 hrs by sulforhodamine B assay; format: functional; details: TK-10, 48 h, read-out: Activity
[17] = Cytotoxicity against human UO31 cells assessed as cell growth at 10^-5 M after 48 hrs by sulforhodamine B assay; format: functional; details: UO-31, 48 h, read-out: Activity
[18] = Cytotoxicity against human PC3 cells assessed as cell growth at 10^-5 M after 48 hrs by sulforhodamine B assay; format: functional; details: PC-3, 48 h, read-out: Activity
[19] = system: T47D; experiment: Cytotoxicity against human T47D cells assessed as cell growth at 10^-5 M after 48 hrs by sulforhodamine B assay; format: functional; details: read-out: Activity
[20] = target: T1, Dihydrofolate reductase (Homo sapiens, UniProt P00374); experiment: Inhibition of human DHFR assessed as conversion of dihydrofolic acid to tetrahydrfolic acid by enzyme immunoassay in presence of NADPH
T1 sequence (P00374 whole entry): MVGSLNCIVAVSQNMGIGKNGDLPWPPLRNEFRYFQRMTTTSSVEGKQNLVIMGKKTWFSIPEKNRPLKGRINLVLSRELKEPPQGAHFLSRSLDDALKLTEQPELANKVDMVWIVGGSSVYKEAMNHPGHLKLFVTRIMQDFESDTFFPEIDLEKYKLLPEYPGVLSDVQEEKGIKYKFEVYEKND

[21] = cells; details: Homo sapiens, IGROV-1, 48 h
Description: Cytotoxicity against human IGROV1 cells after 48 hrs by sulforhodamine B assay

[22] = cells; details: Homo sapiens, OVCAR-3, 48 h
Description: Cytotoxicity against human OVCAR3 cells after 48 hrs by sulforhodamine B assay

[23] = cells; details: Homo sapiens, OVCAR-8, 48 h
Description: Cytotoxicity against human OVCAR8 cells after 48 hrs by sulforhodamine B assay

[24] = system: A498; experiment: cells; details: Homo sapiens, A498, 48 h
Description: Cytotoxicity against human A498 cells after 48 hrs by sulforhodamine B assay

[25] = system: ACHN; experiment: cells; details: Homo sapiens, 48 h
Description: Cytotoxicity against human ACHN cells after 48 hrs by sulforhodamine B assay

[26] = cells; details: Homo sapiens, PC-3, 48 h
Description: Cytotoxicity against human PC3 cells after 48 hrs by sulforhodamine B assay

[27] = system: MDA-MB-231; experiment: cells; details: Homo sapiens, MDA-MB-231, 48 h
Description: Cytotoxicity against human MDA-MB-231 cells after 48 hrs by sulforhodamine B assay

[28] = cells; details: Homo sapiens, HL-60, 48 h
Description: Cytotoxicity against human HL-60(TB) cells after 48 hrs by sulforhodamine B assay

[29] = cells; details: Homo sapiens, RPMI-8226, 48 h
Description: Cytotoxicity against human RPMI8226 cells after 48 hrs by sulforhodamine B assay

[30] = system: EKVX; experiment: cells; details: Homo sapiens, 48 h
Description: Cytotoxicity against human EKVX cells after 48 hrs by sulforhodamine B assay

[31] = system: NCI-H522; experiment: cells; details: Homo sapiens, NCI-H522, 48 h
Description: Cytotoxicity against human NCI-H522 cells after 48 hrs by sulforhodamine B assay

[32] = system: KM12; experiment: cells; details: Homo sapiens, KM12, 48 h
Description: Cytotoxicity against human KM12 cells after 48 hrs by sulforhodamine B assay

[33] = cells; details: Homo sapiens, SF-539, 48 h
Description: Cytotoxicity against human SF539 cells after 48 hrs by sulforhodamine B assay

[34] = system: U-251; experiment: cells; details: Homo sapiens, U-251, 48 h
Description: Cytotoxicity against human U251 cells after 48 hrs by sulforhodamine B assay

[35] = system: Malme-3M; experiment: cells; details: Homo sapiens, 48 h
Description: Cytotoxicity against human MALME-3M cells after 48 hrs by sulforhodamine B assay

CC1=NN(c2cccc(Cl)c2)C(=O)/C1=C\c1cn(CC(O)Cn2cc(/C=C3\C(=O)N(c4cccc(Cl)c4)N=C3C)c3ccccc32)c2ccccc12
growth at 10 µM [1]: 109%
growth at 10 µM [2]: 101%
growth at 10 µM [3]: 96.3%
growth at 10 µM [4]: 97.6%
growth at 10 µM [5]: 112%
growth at 10 µM [6]: 100%
growth at 10 µM [7]: 109%
growth at 10 µM [8]: 101%
growth at 10 µM [9]: 116%
growth at 10 µM [10]: 103%
growth at 10 µM [11]: 111%
growth at 10 µM [12]: 110%
growth at 10 µM [13]: 107%
growth at 10 µM [14]: 98.8%
growth at 10 µM [15]: 116%
growth at 10 µM [16]: 118%
growth at 10 µM [17]: 86.4%
growth at 10 µM [18]: 104%
growth at 10 µM [19]: 88%

COc1cc(/C=C2\C(=O)Nc3ccccc32)cc(OC)c1O
IC50 [20]: 0.5 µM
growth at 10 µM [1]: 1.88%
growth at 10 µM [2]: 7.58%
growth at 10 µM [3]: -10.3%
growth at 10 µM [4]: 8.78%
growth at 10 µM [5]: 75.7%
growth at 10 µM [6]: 32.2%
growth at 10 µM [7]: 90.2%
growth at 10 µM [8]: 45.7%
growth at 10 µM [9]: 62.6%
growth at 10 µM [10]: 89.1%
growth at 10 µM [11]: 19.1%
growth at 10 µM [12]: 93.5%
growth at 10 µM [13]: 77%
growth at 10 µM [14]: 37.7%
growth at 10 µM [15]: 71.3%
growth at 10 µM [16]: 88.5%
growth at 10 µM [17]: 60%
growth at 10 µM [18]: 51.2%
growth at 10 µM [19]: 49.6%
GI50 [21]: 3.7 µM
TGI [21]: 20.4 µM
CC50 ([21]; read-out: LC50): 85.1 µM
GI50 [22]: 2 µM
TGI [22]: 5 µM
CC50 ([22]; read-out: LC50): 22.3 µM
GI50 [23]: 5 µM
TGI [23]: 29.5 µM
CC50 ([23]; read-out: LC50): > 100 µM
GI50 [24]: 2.1 µM
TGI [24]: 15.8 µM
CC50 ([24]; read-out: LC50): > 100 µM
GI50 [25]: 4.7 µM
TGI [25]: 22.3 µM
CC50 ([25]; read-out: LC50): 83.2 µM
GI50 [26]: 20.8 µM
TGI [26]: > 100 µM
CC50 ([26]; read-out: LC50): > 100 µM
GI50 [27]: 3.1 µM
TGI [27]: 20.8 µM
CC50 ([27]; read-out: LC50): > 100 µM
GI50 [28]: 2.8 µM
TGI [28]: 11.2 µM
CC50 ([28]; read-out: LC50): > 100 µM
GI50 [29]: 5.5 µM
TGI [29]: 27.5 µM
CC50 ([29]; read-out: LC50): > 100 µM
GI50 [30]: 4.9 µM
TGI [30]: 47.8 µM
CC50 ([30]; read-out: LC50): > 100 µM
GI50 [31]: 1.7 µM
TGI [31]: 5.1 µM
CC50 ([31]; read-out: LC50): 22.9 µM
GI50 [32]: 2.5 µM
TGI [32]: 11.5 µM
CC50 ([32]; read-out: LC50): 36.3 µM
GI50 [33]: 2.5 µM
TGI [33]: 13.2 µM
CC50 ([33]; read-out: LC50): 53.7 µM
GI50 [34]: 2.4 µM
TGI [34]: 14.1 µM
CC50 ([34]; read-out: LC50): 42.6 µM
GI50 [35]: 2.9 µM
TGI [35]: 21.8 µM
CC50 ([35]; read-out: LC50): > 100 µM
